The values that follow are results of earlier work, collected in patent publication US7569576B2, “Cyclic 1-(acyloxy)-alkyl prodrugs of GABA analogs, compositions and uses thereof” (XenoPort, Inc., priority 2002, dated 2009).

With `O=C1CC2(CCCCC2)CN1` [lactam 9], the “toxicity (LD50, mouse)” value is on record as 300 mg/kg.

For `NCC1(CC(=O)O)CCCCC1` [gabapentin], the “toxicity (LD50, mouse)” value is recorded as “more than 8000 mg/kg”.
